Target: T1, RORc ligand binding domain (Homo sapiens, UniProt P51449)
T1 construct: host or cells: E. coli
T1 sequence (P51449 269-508 limits assumed): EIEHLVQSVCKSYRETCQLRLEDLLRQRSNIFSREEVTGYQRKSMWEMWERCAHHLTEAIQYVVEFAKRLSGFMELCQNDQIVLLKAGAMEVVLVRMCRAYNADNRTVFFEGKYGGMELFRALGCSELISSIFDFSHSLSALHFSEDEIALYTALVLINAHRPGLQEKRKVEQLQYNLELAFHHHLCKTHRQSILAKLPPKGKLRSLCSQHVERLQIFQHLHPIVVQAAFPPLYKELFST
Assay: In Vitro RORc Ligand Binding Assay (25-[3H]hydroxycholesterol radioligand filtration)
Conditions: In Vitro RORc Ligand Binding Assay; Table 4; read-out: RORc IC50

Compound	IC50
C[C@H]1CCC(c2ccccc2)S(=O)(=O)N1Cc1ccc(N2CCC(S(=O)(=O)N(C)C)CC2)cc1F (single isomer, unassigned) [Example 103]	146 nM
CC(=O)N1CCN(c2ccc(CN3[C@@H](C)CCC(c4ccccc4)S3(=O)=O)cc2C#N)CC1 (single isomer, unassigned) [Example 113]	2750 nM
CC(=O)N1CCN(c2ccc(CN3[C@@H](C)CCC(c4ccccc4)S3(=O)=O)cc2C#N)CC1 (single isomer, unassigned) [Example 114]	201 nM
CC(=O)N1CCN(c2ccc(CN3[C@@H](C)CCC(c4cccc(F)c4)S3(=O)=O)c(F)c2)CC1 (single isomer, unassigned) [Example 127]	58 nM
CC(=O)N1CCN(c2ccc(CN3[C@@H](C)CCC(c4ccccc4)S3(=O)=O)cc2C)CC1 (single isomer, unassigned) [Example 129]	432 nM
CC(=O)N1CCN(c2ccc(CN3[C@@H](C)CCC(c4ccccc4)S3(=O)=O)cc2C)CC1 (single isomer, unassigned) [Example 130]	72 nM
CC(=O)N1CCN(c2ccc(CN3[C@@H](C)CCC(c4ccccc4)S3(=O)=O)c(C)c2)CC1 (single isomer, unassigned) [Example 131]	501 nM
CC(=O)N1CCN(c2ccc(CN3[C@@H](C)CCC(c4ccccc4)S3(=O)=O)c(C)c2)CC1 (single isomer, unassigned) [Example 132]	3930 nM
C[C@H]1CCC(c2ccccc2)S(=O)(=O)N1Cc1ccc(N2CCn3nccc3C2)cc1F (single isomer, unassigned) [Example 133]	244 nM
C[C@H]1CCC(c2ccccc2)S(=O)(=O)N1Cc1ccc(N2CCn3nccc3C2)cc1F (single isomer, unassigned) [Example 134]	330 nM
C[C@H]1CCC(c2ccccc2)S(=O)(=O)N1Cc1ccc(N2CCC(c3nncn3C)CC2)cc1F (single isomer, unassigned) [Example 137]	2480 nM
C[C@H]1CCC(c2ccccc2)S(=O)(=O)N1Cc1ccc(N2CCC(c3nncn3C)CC2)cc1F (single isomer, unassigned) [Example 138]	1100 nM
C[C@H]1CCC(c2ccccc2)S(=O)(=O)N1Cc1ccc(N2CCC(c3nccn3C)CC2)cc1F (single isomer, unassigned) [Example 139]	1390 nM
C[C@H]1CCC(c2ccccc2)S(=O)(=O)N1Cc1ccc(N2CCC(c3nccn3C)CC2)cc1F (single isomer, unassigned) [Example 140]	410 nM
C[C@H]1CCC(c2ccccc2)S(=O)(=O)N1Cc1ccc(N2CCC(c3nnn[nH]3)CC2)cc1F (single isomer, unassigned) [Example 141]	57 nM
C[C@H]1CCC(c2ccccc2)S(=O)(=O)N1Cc1ccc(N2CCC(c3nnn[nH]3)CC2)cc1F (single isomer, unassigned) [Example 142]	192 nM

Compound	IC50
C[C@H]1CCC(c2ccccc2)S(=O)(=O)N1Cc1ccc(N2CCc3[nH]ncc3C2)cc1F (single isomer, unassigned) [Example 145]	242 nM
CON(C)C(=O)C1CCN(c2ccc(CN3[C@@H](C)CCC(c4ccccc4)S3(=O)=O)c(F)c2)CC1 (single isomer, unassigned) [Example 146]	142 nM
CON(C)C(=O)C1CCN(c2ccc(CN3[C@@H](C)CCC(c4ccccc4)S3(=O)=O)c(F)c2)CC1 (single isomer, unassigned) [Example 147]	1780 nM
C[C@H]1CCC(c2ccccc2)S(=O)(=O)N1Cc1ccc(N2CCn3cnnc3C2)cc1F (single isomer, unassigned) [Example 148]	1600 nM
C[C@H]1CCC(c2ccccc2)S(=O)(=O)N1Cc1ccc(N2CCn3cnnc3C2)cc1F (single isomer, unassigned) [Example 149]	1460 nM
C[C@H]1CCC(c2ccccc2)S(=O)(=O)N1Cc1ccc(N2CCC(c3cc(O)no3)CC2)cc1F (single isomer, unassigned) [Example 153]	55 nM
C[C@H]1CCC(c2ccccc2)S(=O)(=O)N1Cc1ccc(N2CCn3cncc3C2)cc1F (single isomer, unassigned) [Example 154]	145 nM
C[C@H]1CCC(c2ccccc2)S(=O)(=O)N1Cc1ccc(N2CCn3cncc3C2)cc1F (single isomer, unassigned) [Example 155]	175 nM
C[C@H]1CCC(c2ccccc2)S(=O)(=O)N1Cc1ccc(N2CCc3[nH]ncc3C2)cc1F (single isomer, unassigned) [Example 156]	272 nM
C[C@H]1CCC(c2ccccc2)S(=O)(=O)N1Cc1ccc(N2CCn3c(n[nH]c3=O)C2)cc1F (single isomer, unassigned) [Example 157]	1700 nM
C[C@H]1CCC(c2ccccc2)S(=O)(=O)N1Cc1ccc(N2CCn3c(n[nH]c3=O)C2)cc1F (single isomer, unassigned) [Example 158]	3930 nM
COc1cc(N2CCN(C(C)=O)CC2)ccc1CN1[C@@H](C)CCC(c2ccccc2)S1(=O)=O (single isomer, unassigned) [Example 159]	1610 nM
COc1cc(N2CCN(C(C)=O)CC2)ccc1CN1[C@@H](C)CCC(c2ccccc2)S1(=O)=O (single isomer, unassigned) [Example 160]	207 nM
COc1cc(CN2[C@@H](C)CCC(c3ccccc3)S2(=O)=O)ccc1N1CCN(C(C)=O)CC1 (single isomer, unassigned) [Example 161]	3080 nM
COc1cc(CN2[C@@H](C)CCC(c3ccccc3)S2(=O)=O)ccc1N1CCN(C(C)=O)CC1 (single isomer, unassigned) [Example 162]	812 nM

More lines, in order of falling IC50, values ahead:

IC50	Compound
54 nM	C[C@H]1CCC(c2ccccc2)S(=O)(=O)N1Cc1ccc(N2CCC(CS(C)(=O)=O)CC2)cc1F (single isomer, unassigned) [Example 104]
52 nM	CC(=O)N1CCN(c2ccc(CN3[C@@H](C)CCC(c4cccc(F)c4)S3(=O)=O)c(F)c2)CC1 (single isomer, unassigned) [Example 128]
49 nM	C[C@H]1CCC(c2ccccc2)S(=O)(=O)N1Cc1ccc(N[C@H]2CC[C@H](C#N)CC2)cc1F (single isomer, unassigned) [Example 111]
47 nM	CC(=O)N1CCN(c2ccc(CN3[C@@H](C)CCC(c4ccc(F)cc4)S3(=O)=O)c(F)c2)CC1 (single isomer, unassigned) [Example 122]
44 nM	C[C@H]1CCC(c2ccccc2)S(=O)(=O)N1Cc1ccc(N2CCC(c3n[nH]c(=O)o3)CC2)cc1F (single isomer, unassigned) [Example 143]
37 nM	CC(=O)N1CCN(c2ccc(CN3[C@@H](C)CCC(c4ccccc4F)S3(=O)=O)c(F)c2)CC1 (single isomer, unassigned) [Example 116]
35 nM	C[C@H]1CCC(c2ccccc2)S(=O)(=O)N1Cc1ccc(N[C@H]2CC[C@@H](C#N)CC2)cc1F (single isomer, unassigned) [Example 110]
34 nM	C[C@H]1CCC(c2ccccc2)S(=O)(=O)N1Cc1ccc(N2CCC(S(=O)(=O)N(C)C)CC2)cc1F (single isomer, unassigned) [Example 109]
33 nM	C[C@H]1CCC(c2ccccc2)S(=O)(=O)N1Cc1ccc(N2CC(C3CCOCC3)C2)cc1F (single isomer, unassigned) [Example 108]
30 nM	C[C@H]1CCC(c2ccccc2)S(=O)(=O)N1Cc1ccc(N[C@H]2CC[C@H](C#N)CC2)cc1F (single isomer, unassigned) [Example 112]
29 nM	C[C@H]1CCC(c2ccccc2)S(=O)(=O)N1Cc1ccc(N2CCC(n3cnnc3)CC2)cc1F (single isomer, unassigned) [Example 150]
29 nM	C[C@H]1CCC(c2ccccc2)S(=O)(=O)N1Cc1ccc(N2CCC(c3cc(O)no3)CC2)cc1F (single isomer, unassigned) [Example 152]
27 nM	C[C@H]1CCC(c2ccccc2)S(=O)(=O)N1Cc1ccc(N2CCC(n3cnnc3)CC2)cc1F (single isomer, unassigned) [Example 151]
21 nM	C[C@H]1CCC(c2ccccc2)S(=O)(=O)N1Cc1ccc(N2CCC(c3n[nH]c(=O)o3)CC2)cc1F (single isomer, unassigned) [Example 144]
20 nM	C[C@H]1CCC(c2ccccc2)S(=O)(=O)N1Cc1ccc(N2CC(C3CCOCC3)C2)cc1F (single isomer, unassigned) [Example 106]
20 nM	C[C@H]1CCC(c2ccccc2)S(=O)(=O)N1Cc1ccc(N2CCC3(COC3)C2)cc1F (single isomer, unassigned) [Example 107]
20 nM	CC(=O)N1CCN(c2ccc(CN3CC(C)CC(c4ccccc4)S3(=O)=O)c(F)c2)CC1 (single isomer, unassigned) [Example 118, 1-{4-[3-Fluoro-4-(4-methyl-1,1-dioxo-6-phenyl-[1,2]thiazinan-2-ylmethyl)-phenyl]-piperazin-1-yl}-ethanone]
18 nM	C[C@H]1CCC(c2ccccc2)S(=O)(=O)N1Cc1ccc(N2CCC(CS(C)(=O)=O)CC2)cc1F (single isomer, unassigned) [Example 105]
14 nM	CC(=O)N1CCN(c2ccc(CN3[C@@H](C)CCC(c4ccc(F)cc4)S3(=O)=O)c(F)c2)CC1 (single isomer, unassigned) [Example 121]
3 nM	CC(=O)N1CCN(c2ccc(CN3[C@@H](C)CCC(c4ccccc4F)S3(=O)=O)c(F)c2)CC1 (single isomer, unassigned) [Example 117]
2 nM	CC(=O)N1CCN(c2ccc(CN3CC(C)CC(c4ccccc4)S3(=O)=O)c(F)c2)CC1 (single isomer, unassigned) [Example 119, 1-{4-[3-Fluoro-4-(4-methyl-1,1-dioxo-6-phenyl-[1,2]thiazinan-2-ylmethyl)-phenyl]-piperazin-1-yl}-ethanone]

Source: patent publication US9115101B2 (Genentech, Inc., priority 2012, dated 2015)
